In test [1] the target is T1, Calpain II (Homo sapiens, UniProt P17655).
T1 construct: from tissue; purified by a cited method
T1 sequence (P17655 1-700): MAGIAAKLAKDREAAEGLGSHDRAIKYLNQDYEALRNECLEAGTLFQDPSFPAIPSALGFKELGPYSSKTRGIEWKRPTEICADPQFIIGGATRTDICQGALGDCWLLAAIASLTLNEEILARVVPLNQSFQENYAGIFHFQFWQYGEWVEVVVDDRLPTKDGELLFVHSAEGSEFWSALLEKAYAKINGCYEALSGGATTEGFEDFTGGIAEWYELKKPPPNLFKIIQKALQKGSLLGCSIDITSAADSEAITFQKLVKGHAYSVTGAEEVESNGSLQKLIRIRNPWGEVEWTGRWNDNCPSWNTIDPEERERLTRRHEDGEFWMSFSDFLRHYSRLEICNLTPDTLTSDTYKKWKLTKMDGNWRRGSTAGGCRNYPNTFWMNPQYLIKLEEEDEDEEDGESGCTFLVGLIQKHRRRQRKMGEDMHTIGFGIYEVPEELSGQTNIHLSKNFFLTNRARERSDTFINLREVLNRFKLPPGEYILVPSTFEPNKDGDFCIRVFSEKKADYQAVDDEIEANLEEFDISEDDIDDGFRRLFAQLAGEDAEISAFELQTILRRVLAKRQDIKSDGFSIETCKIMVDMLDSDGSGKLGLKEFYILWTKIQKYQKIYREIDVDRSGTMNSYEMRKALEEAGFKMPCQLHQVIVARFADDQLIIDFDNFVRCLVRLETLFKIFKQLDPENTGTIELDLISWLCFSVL
T1 sequence (P04632 1-268 partner): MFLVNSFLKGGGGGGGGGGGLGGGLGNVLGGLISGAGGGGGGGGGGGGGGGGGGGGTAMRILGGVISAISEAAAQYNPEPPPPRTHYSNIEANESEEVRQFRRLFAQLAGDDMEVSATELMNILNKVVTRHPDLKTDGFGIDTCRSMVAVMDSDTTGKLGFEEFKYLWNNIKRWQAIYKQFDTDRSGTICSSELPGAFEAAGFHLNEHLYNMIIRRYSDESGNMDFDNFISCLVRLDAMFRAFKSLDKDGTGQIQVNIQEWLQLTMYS
The experiment in a line: Calpain II 14C-methylated casein proteolysis (Table 1A). The class given is biochemical. As for the experimental part:
(§1) The isocoumarins are irreversible inhibitors of Calpain. We obtained IC50 values for a variety of these Calpain Inhibitors as a kinetic analysis of these compounds.
(§2) Calpains I and II were purified by the method of (Yoshimura, et al. 1983). (Kitahara 1984) provides an alternative purification scheme. Calpain II may alternatively be purchased from Sigma Chemical Co. as "Calcium Activated Neutral Protease." In this assay, purified Calpain was incubated with ^14 C-methylated casein in the presence of various Heterocyclic Compounds and the amount of acid-soluble radioactivity released by the action of Calpain was measured.

Test [2] has as its target T2, Calpain I (Homo sapiens, UniProt P07384).
T2 sequence (P07384 1-714): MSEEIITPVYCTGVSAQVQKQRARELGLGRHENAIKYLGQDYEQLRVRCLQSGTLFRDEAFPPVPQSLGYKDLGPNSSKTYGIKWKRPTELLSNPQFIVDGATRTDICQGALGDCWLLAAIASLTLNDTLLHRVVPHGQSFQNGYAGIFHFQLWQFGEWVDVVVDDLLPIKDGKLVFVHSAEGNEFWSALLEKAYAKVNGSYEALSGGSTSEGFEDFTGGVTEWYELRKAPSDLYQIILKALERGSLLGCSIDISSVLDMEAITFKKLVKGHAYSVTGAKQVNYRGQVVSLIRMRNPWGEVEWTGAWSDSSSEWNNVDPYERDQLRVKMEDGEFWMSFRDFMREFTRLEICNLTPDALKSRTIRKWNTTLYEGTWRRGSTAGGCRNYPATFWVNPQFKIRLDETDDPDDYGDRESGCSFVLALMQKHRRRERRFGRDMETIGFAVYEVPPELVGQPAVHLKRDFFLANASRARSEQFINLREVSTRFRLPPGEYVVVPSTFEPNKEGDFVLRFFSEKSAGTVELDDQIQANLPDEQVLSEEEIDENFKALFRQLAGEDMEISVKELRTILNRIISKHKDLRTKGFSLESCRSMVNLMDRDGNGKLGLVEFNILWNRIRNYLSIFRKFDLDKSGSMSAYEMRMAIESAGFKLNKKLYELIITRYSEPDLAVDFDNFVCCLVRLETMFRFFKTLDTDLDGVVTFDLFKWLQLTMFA
T2 sequence (P04632 1-268 partner): T1 sequence (P04632 1-268 partner)
The experiment in a line: Calpain I 14C-methylated casein proteolysis (Table 1A). The class given is biochemical. How it is done:
as §1, §2

Test [3] addresses T2, Calpain I. The experiment in a line: Calpain I KI (Table 1B(ii)). The class given is biochemical. The note with it: Table 1B(ii). The source says: We tested the ability of an additional group of Peptide Keto-Compounds to inhibit several proteases in order to evaluate their specificity for Calpain.
Test [4] deals with Calpain II. Kind of test: Kapp/[I] progress curve method, Calpain II (Table 1C). The class given is biochemical. The conditions noted are these: Rabbit Calpain II, Suc-leu-tyr-amidomethylcoumarin. The arrangement: unit not given here. The essentials: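 Irreversible inactivation of calpains I and II followed with Suc-Leu-Tyr-AMC substrate; papain assayed with benzoyl-Arg-4-nitroanilide. Kapp derived by the Tian–Tsou progress-curve method from product formed at infinite time, known substrate and inhibitor concentrations, Vmax and Km; values reported as Kapp/[I].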

For the next test, the target named is T3, Papain (Carica papaya, UniProt P00784).
T3 sequence (P00784 134-345): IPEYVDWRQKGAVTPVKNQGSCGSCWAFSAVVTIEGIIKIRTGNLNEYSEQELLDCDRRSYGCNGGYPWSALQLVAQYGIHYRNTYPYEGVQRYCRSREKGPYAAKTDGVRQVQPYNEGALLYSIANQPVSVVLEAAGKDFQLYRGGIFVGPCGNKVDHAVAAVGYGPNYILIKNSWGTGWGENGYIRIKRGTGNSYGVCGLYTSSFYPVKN
The experiment in a line: Kapp/[I] progress curve method, Papain (Table 1C). The class given is biochemical. The note with it: benzoyl-arg-4-nitroanilide. How it is done:
(§3) The Halo-Ketone Peptides, like the substituted isocoumarins, are irreversible inhibitors of Calpain. We determined the Kapp /[I] values for various members of this class of compounds against Calpains I and II. For comparison, we also determined these values against the additional thiol proteases Papain and Cathepsin B for at least one Halo-Ketone Peptide.
(§4) We assayed Calpain I and II using Suc-leu-tyr-amidomethylcoumarin. Papain was assayed using benzoyl-arg-4-nitroanilide, and Cathepsin B (bovine) was assayed using CBZ-lys-4-nitrophenyl ester. We followed the progress curve method of Tian and Tsou, Biochemistry, 21:1028-1032 (1982), the disclosure of which is hereby incorporated by reference, to derive kinetic data. Briefly, this method makes use of the equation: [formula] where [P.infin. ] represents the concentration of product formed at a time approaching infinity, A is the Kapp in the presence of substrate (S), K is the Michaelis constant and [Y] is the concentration of the inhibitor. Since [S] and [Y] are known and V and K can be determined, Kapp can be readily determined.

The next test has as its target Cathepsin B (Bos taurus, UniProt P07688). The experiment in a line: Kapp/[I] progress curve method, Cathepsin B (Table 1C). The class given is biochemical, bovine. The conditions noted are these: CBZ-lys-4-nitrophenyl ester. How it is done:
as §3, §4

The next test has as its system hippocampal slices. Kind of test: Hippocampal slice EPSP recovery from severe hypoxia (FIG. 5). The test is classed as cell-based, rat. The conditions noted are these: one hour incubation. How it is done: These studies were performed in a manner similar to that of Example 7B, except using a hypoxic environment in place of the anoxia of Example 7B. […] The control slices experienced little or no recovery.

Where a SMILES comes first, the peptide text is derived from it. The star is where a group is joined. Boc = CC(C)(C)OC(=O)*; CH2Cl = ClC*

What is called IC50 is the concentration that gives 50% inhibition. Regarding `N=C(N)SCCCOc1oc(=O)c2ccccc2c1Cl` [CiTprOIC, 4-chloro-3-(3-isothiureidopropoxy)isocoumarin], the figures for the IC50 at Calpain II [1] and on Calpain I [2] were 70 µM and 100 µM, respectively. In general, Ki refers to the equilibrium dissociation constant of an inhibitor or competing ligand from its target. `CCCC(NC(=O)[C@H](CC(C)C)NC(=O)OCc1ccccc1)C(=O)C(=O)OCC` (mixture of isomers) [Z-Leu-Nva-COOEt, Z-Leu-DL-Nva-COOEt] registered a Ki at Calpain I [3] of 1.4 µM.

As to `N=C(N)SCCCOc1oc(=O)c2cc(N)ccc2c1Cl` [NH2 -CiTPrOIC (ACITIC), 7-amino-4-chloro-3-(3-isothiureidopropoxy)isocoumarin], the IC50 against Calpain II [1] turned out to be 120 µM; on Calpain I [2] it was 10 µM. Turning to `CC(C)CC(NC(=O)CNC(=O)OC(C)(C)C)C(=O)NC(Cc1ccccc1)C(=O)CCl` (stereo not drawn) [Boc-Gly-Leu-Phe-CH2 Cl] (Boc-Gly-Leu-Phe-CH2Cl; configuration not given here), the “Kapp/[I] CII” value in the test on Calpain II [4] is 902000. At Papain, the “Kapp/[I] P” value was determined as 540000. The “Kapp/[I] CB” value on Cathepsin B is reported as 290000. `CCOC(=O)C(=O)C(Cc1ccccc1)NC(=O)C(CC(C)C)NC(=O)OCc1ccccc1` (stereo not drawn) [Z-Leu-Phe-COOEt]: the “percent recovery of EPSP from severe hypoxia (FIG. 5)” value in the test with hippocampal slices is reported as “partial recovery”.

These data come from patent US5444042A, “Method of treatment of neurodegeneration with calpain inhibitors” (Cortex Pharmaceuticals, priority 1994, dated 1995).
